Test results taken from US10314308B2, “Microbiocidal benzoxaboroles” (SYNGENTA PARTICIPATIONS AG, priority 2015, dated 2019).

Key:
Plasmopara Viticola = experiment: whole plant or invertebrate; format: in vivo; details: foliar, read-out: disease control
Pythium Ultimum = experiment: Pythium ultimum / liquid culture (seedling damping off); format: cell-based; details: Globisporangium ultimum, potato dextrose broth, 24° C., 2-3 days after application, read-out: disease control (inhibition of growth, photometrically)
[1] = tested on: Glomerella Lagenarium(Colletotrichum Ladenarium); experiment: Glomerella lagenarium (Colletotrichum lagenarium) / liquid culture (anthracnose); format: cell-based; details: PDB potato dextrose broth, 24° C., 3-4 days after application, read-out: disease control (inhibition of growth, photometrically)
Experimental: (§1) 10 Glomerella Lagenarium(Colletotrichum Ladenarium)/Liquid Culture (Anthracnose) Conidia of the fungus from cryogenic storage were directly mixed into nutrient broth (PDB potato dextrose broth). After placing a DMSO solution of test compound into a 96-well microtiter plate, the nutrient broth containing the fungal spores was added. The test plates were incubated at 24° C. and the inhibition of growth was measured photometrically 3-4 days after application.

[2] = tested on: Mycosphaerella Graminicola(Septoria Tritici); experiment: Mycosphaerella graminicola (Septoria tritici) / liquid culture (Septoria blotch); format: cell-based; details: Zymoseptoria tritici, PDB potato dextrose broth, 24° C., 4-5 days after application, read-out: disease control (inhibition of growth, photometrically)
Experimental: as §1, with “12 Mycosphaerella Graminicola(Septoria Tritici)/Liquid” for “10 Glomerella Lagenarium(Colletotrichum Ladenarium)/Liquid”, “(Septoria Blotch)” for “(Anthracnose)”, “determined” for “measured”, “4-5” for “3-4”

Gaeumannomyces Graminis = experiment: Gaeumannomyces graminis / liquid culture (take-all of cereals); format: cell-based; details: PDB potato dextrose broth, 24° C., 4-5 days after application, read-out: disease control (inhibition of growth, photometrically)
Experimental: (§2) 13 Gaeumannomyces Graminis/Liquid Culture (Take-all of Cereals) Mycelial fragments of the fungus from cryogenic storage were directly mixed into nutrient broth (PDB potato dextrose broth). After placing a DMSO solution of test compound into a 96-well microtiter plate, the nutrient broth containing the fungal spores is added. The test plates were incubated at 24° C. and the inhibition of growth was determined photometrically 4-5 days after application.

[3] = tested on: Monographella Nivalis(Microdochium Nivale); experiment: Monographella nivalis (Microdochium nivale) / liquid culture (foot rot cereals); format: cell-based; details: PDB potato dextrose broth, 24° C., 4-5 days after application, read-out: disease control (inhibition of growth, photometrically)
Experimental: as §2, with “14 Monographella Nivalis(Microdochium Nivale)/Liquid” for “13 Gaeumannomyces Graminis/Liquid”, “(Foot Rot” for “(Take-all of”, “Conidia” for “Mycelial fragments”, “was” for “is”

[4] = tested on: Mycosphaerella Arachidis(Cercospora Arachidicola); experiment: Mycosphaerella arachidis (Cercospora arachidicola) / liquid culture (early leaf spot); format: cell-based; details: PDB potato dextrose broth, 24° C., 4-5 days after application, read-out: disease control (inhibition of growth, photometrically)
Experimental: as §2, with “11 Mycosphaerella Arachidis(Cercospora Arachidicola)/Liquid” for “13 Gaeumannomyces Graminis/Liquid”, “(Early Leaf Spot) Conidia” for “(Take-all of Cereals) Mycelial fragments”, “was” for “is”

Fusarium Culmorum = experiment: microbe, parasite or virus in culture; format: cell-based; details: read-out: disease control (inhibition of growth, photometrically)
Sclerotinia Sclerotiorum = experiment: Sclerotinia sclerotiorum / liquid culture (cottony rot); format: cell-based; details: PDB potato dextrose broth, 24° C., 3-4 days after application, read-out: disease control (inhibition of growth, visually)
Experimental: 17 Sclerotinia Sclerotiorum/Liquid Culture (Cottony Rot) Mycelia fragments of a newly grown liquid culture of the fungus were directly mixed into nutrient broth (PDB potato dextrose broth). After placing a (DMSO) solution of the test compounds into a microtiter plate (96-well format) the nutrient broth containing the fungal material was added. The test plates were incubated at 24° C. and the inhibition of growth was determined visually 3-4 days after application.

[5] = tested on: Botryotinia Fuckeliana(Botrytis Cinerea); experiment: Botryotinia fuckeliana (Botrytis cinerea) / liquid culture (gray mould); format: cell-based; details: Vogels broth, 24° C., 3-4 days after application, read-out: disease control (inhibition of growth, photometrically)
Experimental: as §1, with “9 Botryotinia Fuckeliana(Botrytis Cinerea)/Liquid” for “10 Glomerella Lagenarium(Colletotrichum Ladenarium)/Liquid”, “(Gray Mould)” for “(Anthracnose)”, “(Vogels” for “(PDB potato dextrose”, “determined” for “measured”

N#Cc1ccc(-c2cc3c(cc2Cl)COB3O)o1 [Compound 41]
≥ 80%: pest or weed control at 200 ppm (Plasmopara Viticola) | inhibition at 20 ppm (Pythium Ultimum) | inhibition at 20 ppm [1] | inhibition at 20 ppm [2] | inhibition at 20 ppm (Gaeumannomyces Graminis) | inhibition at 20 ppm [3]

CCn1cc(-c2cc3c(cc2F)COB3O)cn1 [Compound 60]
≥ 80%: pest or weed control at 200 ppm (Plasmopara Viticola) | inhibition at 20 ppm (Pythium Ultimum) | inhibition at 20 ppm [1] | inhibition at 20 ppm [4] | inhibition at 20 ppm (Gaeumannomyces Graminis) | inhibition at 20 ppm [3]

Cn1cc(-c2cc3c(cc2F)COB3O)cn1 [Compound 77]
≥ 80%: inhibition at 20 ppm (Pythium Ultimum) | inhibition at 20 ppm [4] | inhibition at 20 ppm (Gaeumannomyces Graminis)

OB1OCc2cc(Cl)c(-c3ccc(N4CCOCC4)nc3)cc21 [Compound 70]
≥ 80%: inhibition at 20 ppm (Pythium Ultimum) | inhibition at 20 ppm [4] | inhibition at 20 ppm [2] | inhibition at 20 ppm [3]

CCn1cc(-c2cc3c(cc2Cl)COB3O)cn1 [Compound 71]
≥ 80%: pest or weed control at 200 ppm (Plasmopara Viticola) | inhibition at 20 ppm (Pythium Ultimum) | inhibition at 20 ppm [4] | inhibition at 20 ppm [3]

OB1OCc2cc(F)c(-c3ccc(N4CCOCC4)nc3)cc21 [Compound 59]
≥ 80%: inhibition at 20 ppm (Pythium Ultimum)

OB1OCc2cc(F)c(-c3cnccc3C(F)(F)F)cc21 [Compound 78]
≥ 80%: pest or weed control at 200 ppm (Plasmopara Viticola) | inhibition at 20 ppm (Pythium Ultimum)

Cn1cc(-c2cc3c(cc2Cl)COB3O)cn1 [Compound 86]
≥ 80%: inhibition at 20 ppm (Pythium Ultimum) | inhibition at 20 ppm [4] | inhibition at 20 ppm (Gaeumannomyces Graminis) | inhibition at 20 ppm [3]

CON=Cc1ccc(-c2cc3c(cc2Cl)COB3O)o1 (racemic) [Compound 23, 1-[5-(5-chloro-1-hydroxy-3H-2,1-benzoxaborol-6-yl)-2-furyl]-N-methoxy-methanimine]
≥ 80%: inhibition at 20 ppm (Pythium Ultimum) | inhibition at 20 ppm [1] | inhibition at 20 ppm [4] | inhibition at 20 ppm [2] | inhibition at 20 ppm (Gaeumannomyces Graminis) | inhibition at 20 ppm [3]

Cc1nn(C)c(C)c1-c1cc2c(cc1F)COB2O [Compound 55]
≥ 80%: pest or weed control at 200 ppm (Plasmopara Viticola) | inhibition at 20 ppm (Pythium Ultimum)

Cn1nccc1-c1cc2c(cc1Cl)COB2O [Compound 9]
≥ 80%: pest or weed control at 200 ppm (Plasmopara Viticola) | inhibition at 20 ppm (Pythium Ultimum)

OB1OCc2cc(Cl)c(-c3cnco3)cc21 [Compound 18]
≥ 80%: inhibition at 20 ppm (Pythium Ultimum) | inhibition at 20 ppm [1] | inhibition at 20 ppm [4] | inhibition at 20 ppm [2] | inhibition at 20 ppm (Gaeumannomyces Graminis) | inhibition at 20 ppm [3] | inhibition at 20 ppm (Fusarium Culmorum) | inhibition at 20 ppm (Sclerotinia Sclerotiorum)

COc1ccc(-c2cc3c(cc2F)COB3O)cn1 [Compound 76]
≥ 80%: inhibition at 20 ppm (Pythium Ultimum) | inhibition at 20 ppm [3]

OB1OCc2cc(Cl)c(-c3cc4ccccc4s3)cc21 [Compound 47]
≥ 80%: pest or weed control at 200 ppm (Plasmopara Viticola) | inhibition at 20 ppm (Pythium Ultimum) | inhibition at 20 ppm [4] | inhibition at 20 ppm [2] | inhibition at 20 ppm (Gaeumannomyces Graminis) | inhibition at 20 ppm [3]

O=Cc1ccc(-c2cc3c(cc2F)COB3O)o1 [Compound 26]
≥ 80%: inhibition at 20 ppm (Pythium Ultimum) | inhibition at 20 ppm [5] | inhibition at 20 ppm [1] | inhibition at 20 ppm [4] | inhibition at 20 ppm [2] | inhibition at 20 ppm [3] | inhibition at 20 ppm (Fusarium Culmorum) | inhibition at 20 ppm (Sclerotinia Sclerotiorum)

OB1OCc2cc(Cl)c(-c3ccncc3)cc21 [Compound 7]
≥ 80%: pest or weed control at 200 ppm (Plasmopara Viticola) | inhibition at 20 ppm (Pythium Ultimum)

COc1ncc(-c2cc3c(cc2Cl)COB3O)c(OC)n1 [Compound 69]
≥ 80%: inhibition at 20 ppm (Pythium Ultimum)

COc1ncc(-c2cc3c(cc2F)COB3O)c(OC)n1 [Compound 58]
≥ 80%: inhibition at 20 ppm (Pythium Ultimum) | inhibition at 20 ppm [3]

N#Cc1csc(-c2cc3c(cc2Cl)COB3O)c1 [Compound 43]
≥ 80%: pest or weed control at 200 ppm (Plasmopara Viticola) | inhibition at 20 ppm (Pythium Ultimum) | inhibition at 20 ppm [1] | inhibition at 20 ppm (Gaeumannomyces Graminis) | inhibition at 20 ppm [3]

Cn1nc(-c2cc3c(cc2F)COB3O)c2ccccc21 [Compound 48]
≥ 80%: pest or weed control at 200 ppm (Plasmopara Viticola) | inhibition at 20 ppm (Pythium Ultimum) | inhibition at 20 ppm (Gaeumannomyces Graminis) | inhibition at 20 ppm [3]

O=Cc1csc(-c2cc3c(cc2Cl)COB3O)c1 [Compound 34]
≥ 80%: inhibition at 20 ppm (Pythium Ultimum) | inhibition at 20 ppm [1] | inhibition at 20 ppm [4] | inhibition at 20 ppm [2] | inhibition at 20 ppm (Gaeumannomyces Graminis) | inhibition at 20 ppm [3] | inhibition at 20 ppm (Fusarium Culmorum)

OB1OCc2cc(F)c(-c3cncc(C(F)(F)F)c3)cc21 [Compound 82]
≥ 80%: inhibition at 20 ppm (Pythium Ultimum) | inhibition at 20 ppm [1] | inhibition at 20 ppm [4] | inhibition at 20 ppm [2] | inhibition at 20 ppm (Gaeumannomyces Graminis) | inhibition at 20 ppm [3] | inhibition at 20 ppm (Sclerotinia Sclerotiorum)

Cc1cscc1-c1cc2c(cc1Cl)COB2O [Compound 53]
≥ 80%: inhibition at 20 ppm (Pythium Ultimum) | inhibition at 20 ppm [1] | inhibition at 20 ppm [4] | inhibition at 20 ppm (Gaeumannomyces Graminis) | inhibition at 20 ppm [3]

CCOc1ccc(-c2cc3c(cc2F)COB3O)cn1 [Compound 64]
≥ 80%: pest or weed control at 200 ppm (Plasmopara Viticola) | inhibition at 20 ppm (Pythium Ultimum) | inhibition at 20 ppm [3]

OB1OCc2cc(Cl)c(-c3cc(Br)cs3)cc21 [Compound 46]
≥ 80%: inhibition at 20 ppm (Pythium Ultimum) | inhibition at 20 ppm [1] | inhibition at 20 ppm [2] | inhibition at 20 ppm (Gaeumannomyces Graminis) | inhibition at 20 ppm [3]

Cc1nc(Nc2ccccc2)nc(C2CC2)c1-c1cc2c(cc1Cl)COB2O [Compound 24]
≥ 80%: inhibition at 20 ppm [3]

OB1OCc2cc(Cl)c(-c3cc4ccccc4o3)cc21 [Compound 37]
≥ 80%: pest or weed control at 200 ppm (Plasmopara Viticola) | inhibition at 20 ppm [1] | inhibition at 20 ppm (Gaeumannomyces Graminis) | inhibition at 20 ppm [3]

COc1ccc(-c2cc3c(cc2Cl)COB3O)cn1 [Compound 85]
≥ 80%: inhibition at 20 ppm (Pythium Ultimum) | inhibition at 20 ppm [3]

CSc1ncc(-c2cc3c(cc2Cl)COB3O)c(C)n1 [Compound 20]
≥ 80%: inhibition at 20 ppm (Pythium Ultimum) | inhibition at 20 ppm [3] | inhibition at 20 ppm (Fusarium Culmorum)

OB1OCc2cc(F)c(-c3cc4ccccc4[nH]3)cc21 [Compound 61]
≥ 80%: pest or weed control at 200 ppm (Plasmopara Viticola) | inhibition at 20 ppm (Pythium Ultimum) | inhibition at 20 ppm [4] | inhibition at 20 ppm [2] | inhibition at 20 ppm (Gaeumannomyces Graminis) | inhibition at 20 ppm [3] | inhibition at 20 ppm (Sclerotinia Sclerotiorum)

OB1OCc2cc(Cl)c(-c3ccncc3Cl)cc21 [Compound 89]
≥ 80%: pest or weed control at 200 ppm (Plasmopara Viticola) | inhibition at 20 ppm (Pythium Ultimum) | inhibition at 20 ppm [1] | inhibition at 20 ppm [4] | inhibition at 20 ppm [2] | inhibition at 20 ppm [3]

Cn1nccc1-c1cc2c(cc1F)COB2O [Compound 10]
≥ 80%: inhibition at 20 ppm (Pythium Ultimum) | inhibition at 20 ppm [5] | inhibition at 20 ppm [1] | inhibition at 20 ppm [4] | inhibition at 20 ppm [2] | inhibition at 20 ppm (Fusarium Culmorum) | inhibition at 20 ppm (Sclerotinia Sclerotiorum)

OB1OCc2cc(Cl)c(-c3cnccc3C(F)(F)F)cc21 [Compound 87]
≥ 80%: pest or weed control at 200 ppm (Plasmopara Viticola) | inhibition at 20 ppm (Pythium Ultimum) | inhibition at 20 ppm [3]

Cc1cc(-c2cc3c(cc2F)COB3O)c(C)s1 [Compound 80]
≥ 80%: inhibition at 20 ppm (Pythium Ultimum) | inhibition at 20 ppm [1] | inhibition at 20 ppm [4] | inhibition at 20 ppm [3]

OB1OCc2cc(Cl)c(-c3cncnc3O)cc21 [Compound 19]
≥ 80%: inhibition at 20 ppm (Pythium Ultimum)
